Where two headings read alike, the source gives them in different places.
How the values were obtained:
Assay in all cases: biochemical
Set-up in all cases: KINOMEscan scanMAX competition binding, DNA-tagged kinases, qPCR read-out, percent control at 300 nM
[1] = biological target: BRAF(V600E) (Homo sapiens, UniProt P15056, V600E)
[2] = biological target: CAMK1D (Homo sapiens, UniProt Q8IU85)
[3] = biological target: FGR (Homo sapiens, UniProt P09769)
[4] = biological target: T1, FLT3(N841I) (Homo sapiens, UniProt P36888, N841I)
T1 sequence (P36888 1-993 N841I): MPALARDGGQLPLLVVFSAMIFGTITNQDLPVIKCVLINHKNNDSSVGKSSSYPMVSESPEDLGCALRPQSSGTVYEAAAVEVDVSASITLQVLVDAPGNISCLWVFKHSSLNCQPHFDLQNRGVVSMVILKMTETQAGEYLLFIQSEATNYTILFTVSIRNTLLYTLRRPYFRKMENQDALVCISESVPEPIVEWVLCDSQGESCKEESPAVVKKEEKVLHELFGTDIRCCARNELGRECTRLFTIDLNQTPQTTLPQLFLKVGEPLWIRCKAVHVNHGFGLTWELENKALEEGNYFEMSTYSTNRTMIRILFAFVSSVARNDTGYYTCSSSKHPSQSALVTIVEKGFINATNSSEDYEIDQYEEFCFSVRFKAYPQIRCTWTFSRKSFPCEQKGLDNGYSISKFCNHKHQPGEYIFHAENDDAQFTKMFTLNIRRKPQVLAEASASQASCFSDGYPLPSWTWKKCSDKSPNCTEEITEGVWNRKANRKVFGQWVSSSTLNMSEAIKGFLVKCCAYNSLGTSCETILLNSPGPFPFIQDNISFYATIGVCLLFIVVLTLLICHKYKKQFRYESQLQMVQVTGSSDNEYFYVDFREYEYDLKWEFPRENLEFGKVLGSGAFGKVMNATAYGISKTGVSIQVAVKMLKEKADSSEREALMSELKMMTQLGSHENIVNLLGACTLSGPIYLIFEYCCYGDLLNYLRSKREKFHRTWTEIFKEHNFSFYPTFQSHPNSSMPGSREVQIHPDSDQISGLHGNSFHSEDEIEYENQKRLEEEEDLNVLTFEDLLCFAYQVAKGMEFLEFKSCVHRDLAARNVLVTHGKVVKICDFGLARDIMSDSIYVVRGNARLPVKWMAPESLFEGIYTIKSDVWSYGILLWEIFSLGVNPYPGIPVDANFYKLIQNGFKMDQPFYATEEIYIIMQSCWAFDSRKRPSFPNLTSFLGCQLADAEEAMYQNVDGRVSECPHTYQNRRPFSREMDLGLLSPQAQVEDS

[5] = biological target: T2, MAP4K3 (Homo sapiens, UniProt Q8IVH8)
T2 sequence (Q8IVH8 1-894): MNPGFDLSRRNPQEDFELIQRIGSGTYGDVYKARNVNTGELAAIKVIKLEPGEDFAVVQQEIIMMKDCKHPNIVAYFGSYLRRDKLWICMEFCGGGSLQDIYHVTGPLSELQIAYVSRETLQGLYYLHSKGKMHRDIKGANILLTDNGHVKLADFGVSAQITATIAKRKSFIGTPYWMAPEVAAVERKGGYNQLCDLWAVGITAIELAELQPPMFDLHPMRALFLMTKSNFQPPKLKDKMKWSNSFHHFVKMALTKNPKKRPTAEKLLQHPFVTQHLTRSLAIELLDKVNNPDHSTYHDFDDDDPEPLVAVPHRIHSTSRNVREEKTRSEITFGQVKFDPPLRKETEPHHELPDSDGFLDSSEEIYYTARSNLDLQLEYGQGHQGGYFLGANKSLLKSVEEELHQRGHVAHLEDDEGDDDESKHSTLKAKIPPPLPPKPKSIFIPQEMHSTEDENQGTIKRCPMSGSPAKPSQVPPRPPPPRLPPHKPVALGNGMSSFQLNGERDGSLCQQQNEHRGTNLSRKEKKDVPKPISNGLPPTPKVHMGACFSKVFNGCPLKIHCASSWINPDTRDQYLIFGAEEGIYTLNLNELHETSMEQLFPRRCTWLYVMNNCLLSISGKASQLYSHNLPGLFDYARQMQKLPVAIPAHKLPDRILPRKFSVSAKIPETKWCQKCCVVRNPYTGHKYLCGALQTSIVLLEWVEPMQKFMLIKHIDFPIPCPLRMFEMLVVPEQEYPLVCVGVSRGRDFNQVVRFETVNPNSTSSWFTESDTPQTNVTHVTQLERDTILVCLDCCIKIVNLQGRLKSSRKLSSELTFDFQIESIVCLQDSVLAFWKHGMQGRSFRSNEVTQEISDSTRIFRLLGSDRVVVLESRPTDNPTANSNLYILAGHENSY

[6] = biological target: MAP4K4 (Homo sapiens, UniProt O95819)
Chain of MAP4K4 (O95819 whole entry): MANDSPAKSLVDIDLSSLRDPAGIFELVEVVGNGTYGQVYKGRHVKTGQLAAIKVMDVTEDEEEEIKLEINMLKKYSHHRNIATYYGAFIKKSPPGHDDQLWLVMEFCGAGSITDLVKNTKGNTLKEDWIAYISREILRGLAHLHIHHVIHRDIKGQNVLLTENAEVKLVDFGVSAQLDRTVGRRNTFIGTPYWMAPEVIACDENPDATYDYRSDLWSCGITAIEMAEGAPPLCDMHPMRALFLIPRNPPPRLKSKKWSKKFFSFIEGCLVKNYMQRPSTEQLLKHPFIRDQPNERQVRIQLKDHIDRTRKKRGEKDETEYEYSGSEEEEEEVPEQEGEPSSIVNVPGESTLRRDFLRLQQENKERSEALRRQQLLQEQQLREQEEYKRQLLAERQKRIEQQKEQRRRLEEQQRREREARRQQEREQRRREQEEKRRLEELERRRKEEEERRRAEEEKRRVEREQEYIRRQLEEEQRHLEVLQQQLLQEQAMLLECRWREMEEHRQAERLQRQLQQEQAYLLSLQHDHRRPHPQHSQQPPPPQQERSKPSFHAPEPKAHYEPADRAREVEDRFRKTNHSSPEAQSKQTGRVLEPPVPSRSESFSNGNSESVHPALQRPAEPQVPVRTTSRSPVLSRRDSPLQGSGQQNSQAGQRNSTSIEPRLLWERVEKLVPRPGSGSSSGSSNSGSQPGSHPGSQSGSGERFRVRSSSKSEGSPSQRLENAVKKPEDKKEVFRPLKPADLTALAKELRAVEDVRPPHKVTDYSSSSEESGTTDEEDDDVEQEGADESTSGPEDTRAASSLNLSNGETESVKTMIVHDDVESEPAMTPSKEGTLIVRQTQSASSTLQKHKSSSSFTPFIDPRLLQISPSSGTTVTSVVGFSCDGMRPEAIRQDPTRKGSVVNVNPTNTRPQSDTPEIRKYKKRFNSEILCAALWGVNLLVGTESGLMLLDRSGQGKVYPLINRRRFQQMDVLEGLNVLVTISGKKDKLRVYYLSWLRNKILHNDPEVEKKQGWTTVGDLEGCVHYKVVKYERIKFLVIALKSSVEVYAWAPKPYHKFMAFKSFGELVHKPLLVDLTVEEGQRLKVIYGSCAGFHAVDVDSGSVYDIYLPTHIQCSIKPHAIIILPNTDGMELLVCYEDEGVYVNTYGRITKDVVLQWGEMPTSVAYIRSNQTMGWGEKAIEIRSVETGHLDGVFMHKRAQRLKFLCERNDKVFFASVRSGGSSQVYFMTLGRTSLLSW

[7] = biological target: PIK3CA(I800L) (Homo sapiens, UniProt P42336, I800L)
Chain of PIK3CA(I800L) (P42336 whole entry I800L): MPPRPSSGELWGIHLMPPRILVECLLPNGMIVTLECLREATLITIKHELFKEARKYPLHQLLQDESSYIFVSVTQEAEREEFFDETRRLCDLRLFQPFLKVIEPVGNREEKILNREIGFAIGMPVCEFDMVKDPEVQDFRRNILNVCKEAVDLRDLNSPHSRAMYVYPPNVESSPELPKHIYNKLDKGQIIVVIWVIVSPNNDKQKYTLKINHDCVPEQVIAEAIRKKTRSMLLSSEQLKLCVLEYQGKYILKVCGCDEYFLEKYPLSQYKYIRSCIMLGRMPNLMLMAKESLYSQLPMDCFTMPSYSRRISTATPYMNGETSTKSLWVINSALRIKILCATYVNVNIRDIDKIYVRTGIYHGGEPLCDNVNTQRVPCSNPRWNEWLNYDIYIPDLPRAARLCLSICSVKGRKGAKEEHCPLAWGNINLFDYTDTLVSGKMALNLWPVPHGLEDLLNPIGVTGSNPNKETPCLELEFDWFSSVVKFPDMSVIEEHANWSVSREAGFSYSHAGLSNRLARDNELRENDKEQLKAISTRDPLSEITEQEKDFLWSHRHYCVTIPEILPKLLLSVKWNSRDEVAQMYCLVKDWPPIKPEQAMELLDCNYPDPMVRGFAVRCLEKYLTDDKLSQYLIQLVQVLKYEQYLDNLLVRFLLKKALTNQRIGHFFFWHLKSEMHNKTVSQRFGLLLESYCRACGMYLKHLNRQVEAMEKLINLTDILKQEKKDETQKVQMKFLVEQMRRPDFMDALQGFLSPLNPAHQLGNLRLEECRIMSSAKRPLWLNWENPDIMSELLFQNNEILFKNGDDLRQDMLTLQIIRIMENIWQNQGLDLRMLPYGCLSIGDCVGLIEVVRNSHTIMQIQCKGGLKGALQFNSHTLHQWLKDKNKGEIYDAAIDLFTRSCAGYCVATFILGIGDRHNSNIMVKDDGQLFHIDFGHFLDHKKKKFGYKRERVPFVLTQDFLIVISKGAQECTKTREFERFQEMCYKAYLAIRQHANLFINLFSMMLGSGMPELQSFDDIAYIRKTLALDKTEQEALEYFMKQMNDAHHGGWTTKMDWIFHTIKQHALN

[8] = read-out: Percent control / Acalabrutinib
[9] = read-out: Percent control / Ibrutinib
[10] = read-out: Percent control / Tirabrutinib
[11] = read-out: Percent control / Zanubrutinib

Chain of CAMK1D (Q8IU85 whole entry): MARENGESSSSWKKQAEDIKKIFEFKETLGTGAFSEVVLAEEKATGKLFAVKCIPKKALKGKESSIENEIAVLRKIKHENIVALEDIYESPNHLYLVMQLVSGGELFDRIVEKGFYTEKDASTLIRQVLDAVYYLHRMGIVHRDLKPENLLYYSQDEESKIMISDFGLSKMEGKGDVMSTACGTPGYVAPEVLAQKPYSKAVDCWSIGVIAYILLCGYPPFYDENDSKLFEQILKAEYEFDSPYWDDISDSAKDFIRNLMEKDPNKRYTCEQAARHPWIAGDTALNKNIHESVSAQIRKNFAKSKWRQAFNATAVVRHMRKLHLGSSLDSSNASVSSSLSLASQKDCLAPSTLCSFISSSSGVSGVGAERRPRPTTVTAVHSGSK
Chain of FGR (P09769 whole entry): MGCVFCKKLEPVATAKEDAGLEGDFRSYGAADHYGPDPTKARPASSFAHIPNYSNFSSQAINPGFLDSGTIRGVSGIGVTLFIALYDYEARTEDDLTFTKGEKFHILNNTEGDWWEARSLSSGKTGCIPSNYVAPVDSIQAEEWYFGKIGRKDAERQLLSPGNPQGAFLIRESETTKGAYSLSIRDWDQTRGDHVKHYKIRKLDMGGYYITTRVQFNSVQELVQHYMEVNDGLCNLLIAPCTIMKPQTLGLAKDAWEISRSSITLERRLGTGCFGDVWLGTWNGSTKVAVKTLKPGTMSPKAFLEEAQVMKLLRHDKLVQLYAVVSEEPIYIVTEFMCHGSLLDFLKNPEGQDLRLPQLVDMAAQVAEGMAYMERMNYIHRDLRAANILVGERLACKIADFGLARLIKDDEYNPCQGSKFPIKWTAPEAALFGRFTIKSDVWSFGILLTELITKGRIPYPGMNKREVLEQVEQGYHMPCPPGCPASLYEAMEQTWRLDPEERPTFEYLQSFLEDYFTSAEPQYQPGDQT
Chain of BRAF(V600E) (P15056 whole entry V600E): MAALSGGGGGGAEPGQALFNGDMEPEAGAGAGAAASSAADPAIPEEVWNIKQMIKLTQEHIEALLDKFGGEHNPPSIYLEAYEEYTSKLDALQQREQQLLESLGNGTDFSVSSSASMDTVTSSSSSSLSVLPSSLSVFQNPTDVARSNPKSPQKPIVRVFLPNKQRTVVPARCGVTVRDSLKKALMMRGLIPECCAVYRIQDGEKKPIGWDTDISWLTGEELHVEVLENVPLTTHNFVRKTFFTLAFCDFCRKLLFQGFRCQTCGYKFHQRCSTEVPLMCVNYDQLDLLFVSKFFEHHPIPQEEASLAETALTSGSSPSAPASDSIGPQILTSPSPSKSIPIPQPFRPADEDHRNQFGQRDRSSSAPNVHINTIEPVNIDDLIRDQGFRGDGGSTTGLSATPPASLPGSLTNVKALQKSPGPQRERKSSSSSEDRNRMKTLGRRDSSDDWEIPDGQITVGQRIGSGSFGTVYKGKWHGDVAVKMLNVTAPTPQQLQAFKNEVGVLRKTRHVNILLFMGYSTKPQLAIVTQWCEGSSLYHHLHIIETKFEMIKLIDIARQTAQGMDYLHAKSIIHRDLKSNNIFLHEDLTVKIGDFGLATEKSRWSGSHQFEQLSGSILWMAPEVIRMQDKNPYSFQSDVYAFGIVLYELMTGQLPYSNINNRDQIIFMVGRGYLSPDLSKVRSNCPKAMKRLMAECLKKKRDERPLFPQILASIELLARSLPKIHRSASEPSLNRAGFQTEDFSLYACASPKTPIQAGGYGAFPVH

CC#CC(=O)N1CCC[C@H]1c1nc(-c2ccc(C(=O)Nc3ccccn3)cc2)c2c(N)nccn12 [Acalabrutinib]
remaining binding at 0.3 µM [1, 8]: 70%
remaining binding at 0.3 µM [2, 8]: 71%
remaining binding at 0.3 µM [3, 8]: 94%
remaining binding at 0.3 µM [4, 8]: 85%
remaining binding at 0.3 µM [5, 8]: 94%
remaining binding at 0.3 µM [6, 8]: 92%

C=CC(=O)N1CCC[C@@H](n2nc(-c3ccc(Oc4ccccc4)cc3)c3c(N)ncnc32)C1 [Ibrutinib]
remaining binding at 0.3 µM [1, 9]: 98%
remaining binding at 0.3 µM [2, 9]: 97%
remaining binding at 0.3 µM [3, 9]: 8.6%
remaining binding at 0.3 µM [4, 9]: 39%
remaining binding at 0.3 µM [5, 9]: 89%
remaining binding at 0.3 µM [6, 9]: 98%
remaining binding at 0.3 µM [7, 9]: 71%

CC#CC(=O)N1CC[C@@H](n2c(=O)n(-c3ccc(Oc4ccccc4)cc3)c3c(N)ncnc32)C1 [Tirabrutinib]
remaining binding at 0.3 µM [2, 10]: 99%
remaining binding at 0.3 µM [6, 10]: 98%
remaining binding at 0.3 µM [7, 10]: 91%

C=CC(=O)N1CCC([C@@H]2CCNc3c(C(N)=O)c(-c4ccc(Oc5ccccc5)cc4)nn32)CC1 [Zanubrutinib]
remaining binding at 0.3 µM [1, 11]: 88%
remaining binding at 0.3 µM [2, 11]: 81%
remaining binding at 0.3 µM [3, 11]: 66%
remaining binding at 0.3 µM [4, 11]: 100%
remaining binding at 0.3 µM [5, 11]: 91%
remaining binding at 0.3 µM [6, 11]: 100%
remaining binding at 0.3 µM [7, 11]: 68%
